Results from paper PMC4096996 (Structure (London, England : 1993), 2013).
Several values for one entry are separate records, joined by “and”; a condition that tells them apart may be missing. Equal values may be shown once.

Key:
[1] = system: AvGluR1; details: prior studies; ref Janovjak et al., 2011; cited from earlier work
[2] = molecular target: T1, AvGluR1 LBD (Adineta vaga, UniProt E9P5T5, INS567GT); test: biochemical; type: binding; details: for binding affinity: β-carbon branched amino acids
T1 sequence (E9P5T5 with tags, fused parts or gaps INS567GT): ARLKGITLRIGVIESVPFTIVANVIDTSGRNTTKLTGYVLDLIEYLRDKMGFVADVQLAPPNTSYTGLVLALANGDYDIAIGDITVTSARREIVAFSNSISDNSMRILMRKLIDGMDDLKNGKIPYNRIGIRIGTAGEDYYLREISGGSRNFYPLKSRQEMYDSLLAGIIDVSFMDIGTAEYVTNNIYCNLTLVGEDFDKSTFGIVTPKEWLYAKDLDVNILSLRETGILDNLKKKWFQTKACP

[3] = system: AvGluR1; type: cell-based, Adineta vaga; details: for time constant of onset of desensitization (Figure 2A traces): 2.8 mM alanine; for amplitude of response relative to glutamate: normalized to 60 μM glutamate in the same oocyte
[4] = molecular target: T1, AvGluR1 LBD; test: Competitive displacement of 100 nM [3H] L-glutamate by 100 μM amino acids; type: binding; details: 100 μM competing amino acid
[5] = molecular target: T1, AvGluR1 LBD; test: Competitive displacement of [3H] L-glutamate with NaCl substituted by HEPES; type: binding
[6] = molecular target: GluR0 from Synechocystis; details: read-out: Kd for glutamate, ref Chen et al., 1999; cited from earlier work
[7] = molecular target: T1, AvGluR1 LBD; test: Saturation binding of [3H] L-glutamate to AvGluR1 LBD apo protein
[8] = displacement of 100 nM [3H] L-Glu, NaCl buffer
[9] = Kd, displacement of 100 nM [3H] L-Glu, NaCl buffer
[10] = ligand applied at 300 times the Kd
[11] = Kd in Cl−, competitive displacement of [3H] L-glutamate, NaCl reaction buffer

For Cc1o[nH]c(=O)c1CC(N)C(=O)O (stereo not shown) [AMPA], the “activation of AvGluR1 (ligand activated ion currents)” value (“activation of AvGluR1” below) [1] is given as “activation” and the Kd [2, 8] is given as 130 µM.
With NC(CCCP(=O)(O)O)C(=O)O (stereo not shown) [AP5] the Kd [2, 8] was 530 µM.
Compound N[C@H](CCC(=O)O)C(=O)O [D-Glu] has a Kd [2, 8] of 130 µM.
Compound O=[N+]([O-])c1cc2nc(O)c(O)nc2cc1[N+](=O)[O-] [DNQX] has a Kd [2, 8] of 250 µM.
In the case of CN[C@H](CC(=O)O)C(=O)O [NMDA], the Kd [2, 8] is reported as 9900 µM.
In the case of C[C@H](C[C@H](N)C(=O)O)C(=O)O [SYM2081, 2S,4R-4-methyl glutamate], the “fold lower affinity for AvGluR1” value ([2]; comparator not given) is reported as 250 fold and the Kd [2, 8] is reported as 49.5 µM.
Cc1cn(C[C@H](N)C(=O)O)c(=O)n(Cc2ccsc2C(=O)O)c1=O [UBP-310] showed a Kd [2, 8] of 160 µM.
With C[C@H](N)C(=O)O [alanine] the “time constant of onset of desensitization (Figure 2A traces)” value ([3]; 60 μM glutamate) was 1.0 s.
With NC(=O)C[C@H](N)C(=O)O [asparagine] the Kd [2, 9] was 81 µM.
For N[C@@H](CC(=O)O)C(=O)O [aspartate], the “activation of AvGluR1” value [1] is listed as “activation” and the “effect on binding of 100 nM [3H] L-glutamate” value [4] is listed as “abolished”.
With N[C@@H](CS)C(=O)O [cysteine] the “amplitude of response relative to glutamate” value [3, 10] was 86 ± 8% and the Kd [2, 9] was 46 µM.
In the case of N[C@@H](CCC(=O)O)C(=O)O [glutamate, L-glutamate], the Kd [5] is reported as 0.3 ± 0.04 µM, the 10-90% rise time ([3]; 60 μM glutamate) is reported as 240 ± 67 ms and the “time constant of desensitization (single exponential)” value ([3]; 60 μM glutamate) is reported as 626 ± 255 ms. For the same compound, the “time constant of onset of desensitization (Figure 2A traces)” value ([3]; 60 μM glutamate) was 1.25 s, the inward current amplitude ([3]; 60 μM glutamate, mean ± SD, n = 9) was 5.1 ± 1.4 μA and the “time constant of recovery from desensitization” value ([3]; 60 μM glutamate, twin pulse protocol) was 26 s and 25.7 s. For the same compound, the “time constant of onset of desensitization” value ([3]; 100 μM glutamate, wild type AvGluR1 control response (Figure 7D)) was 460 ms, the “extent of desensitization” value [3, 10] was “complete desensitization” and the “activation of AvGluR1” value [1] was “activation”. For the same compound, the Kd [6] was 0.193 µM, the “effect on binding of 100 nM [3H] L-glutamate” value [4] was “abolished” and the Kd [2, 11] was 0.27 ± 0.02 µM. The Kd ([2]; Kd, sequence of Kd values, Figure 1C and Table S1) was 0.203 µM and the Kd [7] was 0.203 ± 0.018 µM.
Compound NC(=O)CC[C@H](N)C(=O)O [glutamine] has a Kd [2, 9] of 37 µM.
In the case of CC[C@H](C)[C@H](N)C(=O)O [isoleucine], the “binding affinity” value [2] is reported as “low affinity”.
For C=C(C)[C@H]1CN[C@H](C(=O)O)[C@H]1CC(=O)O [kainate], the “activation of AvGluR1” value [1] is given as “activation” and the Kd [2, 8] is given as 2700 µM.
With CSCC[C@H](N)C(=O)O [methionine] the Kd [5] was 270 ± 52 µM, the “amplitude of response relative to glutamate” value [3, 10] was 64 ± 7% and the Kd [2, 11] was 15.1 ± 2.5 µM. The Kd [2, 9] was 15 µM.
In the case of N[C@@H](Cc1ccccc1)C(=O)O [phenylalanine], the “amplitude of response relative to glutamate” value [3, 10] is reported as 33 ± 6%.
In the case of N[C@@H](Cn1oc(=O)[nH]c1=O)C(=O)O [quisqualate], the Kd [2, 9] is reported as 39 µM.
For N[C@@H](CO)C(=O)O [serine], the “activation of AvGluR1” value [1] is listed as “activation”.
In the case of C[C@@H](O)[C@H](N)C(=O)O [threonine], the “binding affinity” value [2] is reported as “low affinity”.
With CC(C)[C@H](N)C(=O)O [valine] the “binding affinity” value [2] was “low affinity”.
With concanavalin A the “effect on AvGluR1 desensitization” value ([3]; 0.5 mg/ml for 4 minutes) was “strongly attenuated”.
